The test system of assay [1] is Hela. Description: cells. The method, then: Cells were returned to the incubator for 24 hrs.
Effect of VEPEP-4 mediated delivery of doxorubicin has been investigated on cancer cell viability.

Assay [2] deals with HEK2. In words: cells. In kind it is cell-based. On the procedure: (§1) Adherent HS68 fibroblasts, HeLa, PC3, CEM-SS, U20S, MCF-7, and HEK2 cell lines (from American Type Culture Collection (ATCC)), as well as MEF and PBMC, were cultured in Dulbecco's Modified Eagle's Medium supplemented with 2 mM glutamine, 1% antibiotics (streptomycin 10,000 μg/ml, penicillin, 10,000 IU/ml) and 10% (w/v) foetal calf serum (FCS), at 37° C. in a humidified atmosphere containing 5% CO2. Stock solutions of VEPEP-4/peptide particles were prepared by complexing 1 μM peptide with VEPEP-4 peptides at a molar ratio of 1/20 for 30 min at 37° C. Lower concentrations of VEPEP-4-carrier/peptide (from 500 nM to 1 μM) were obtained by serial dilution of the stock complexes in PBS, in order to preserve the same VEPEP-4-carrier/peptide ratio. 150,000 cells seeded in a 35 mm dish the day prior transfection, were grown to 60% confluence and overlaid with 200 μl of preformed complexes, incubated for 3-5 min, then 400 μl of DMEM were added. After 30 min. incubation at 37° C., 1 ml of fresh DMEM containing 16% foetal calf serum (FCS) was added in order to reach a final FCS concentration of 10%, without removing the overlay of VEPEP-4/peptide complexes. Cells were returned to the incubator for 24 hrs. For CDK2 derived peptides cell proliferation was monitored after 24 and 48 hrs. For peptide-targeting integrase, HIV proliferation was analyzed on activated PBMC cells after 3 and 5 days. Data reported are an average of 3 or 4 distinct experiments.
(§2) VEPEP-4 peptides have been used for the delivery of different small fluorescent hydrophobic and charged molecules as well as doxorubicin on different cell lines including primary cell lines and challenging cell lines. VEPEP-4 peptides form stable particles with small aromatic molecules including doxorubicin. Effect of VEPEP-4 mediated delivery of doxorubicin has been investigated on cancer cell viability. […] The impact of carrier peptides to improve cellular uptake of small molecule drugs was estimated by following inhibition of proliferation of cancer cells.

The nature of assay [3]: Fluorescence titration of VEPEP-4 binding to small molecule cargo. On the procedure: (§3) Fluorescence experiments were performed on a PTI spectrofluorimeter at 25° C. in a NaCl 154 mM buffer. Intrinsic Trp-fluorescence of VEPEP-4 was excited at 290 nm and emission spectrum was recorded between 310 and 400 nm, with a spectral band-pass of 2 and 8 nm for excitation and emission, respectively. FITC-fluorescence of labelled-peptide was excited at 492 nm and emission recorded between 500 and 580 nm. For VEPEP-4/peptide interaction, 0.5 μM of FITC-labelled peptide was titrated by increasing concentrations of VEPEP-4. All measurements were corrected for the dilution and curve fitting were performed by using Grafit software (Erithacus).
VEPEP-4 peptides also form stable particles with small aromatic molecules including daunomycin, Paclitaxel, doxorubicin, porphyrin and charged molecules including nucleotide, nucleoside and peptide-analogue of nucleic acids or fluorescent dyes. The dissociation constant for small hydrophobic molecule ranges between 0.05 to 2 μM, depending on the nature of the dyes and of the peptides.
Binding of small molecule cargoes has been investigated in detail depending on the nature of the SMH. Several hydrophobic and charges molecules have been use (Daunomycin, Paclitaxel, doxorubicin, porphyrin) and charged molecules (nucleotide, nucleoside and fluorescent dyes).

Assay [4] has as its system Peptide (C4). Description: Fluorescence titration of VEPEP-4 binding to peptide cargo. On the procedure:
as §3
(§4) VEPEP-4i (SEQ ID No: 1) and VEPEP-4j (SEQ ID No: 2) peptides form stable complexes with peptides. The binding of cargos to VEPEP-4 was monitored by fluorescence spectroscopy using the both intrinsic Trp group of VEPEP-4 (4 Trp-residues) and extrinsic fluorescently labeled cargoes (using Cy5 or FITC). Curve fitting reveal that VEPEP-4 strongly binds the different cargoes with dissociation constant in the nanomolar range (Table 1 and FIG. 1).

The test system of assay [5] is Cyclic peptide (PC4). In words: Fluorescence titration of VEPEP-4 binding to cyclic peptide cargo. The method, then:
as §3, §4

The subject of assay [6] is MCF7. Format: cell-based, Human. On the procedure:
as §1, §2

Assay [7] concerns MEF. Description: VEPEP-4 mediated delivery of fluorescently labelled peptide (fluorescence microscopy or FACS). Format: cell-based, Mouse. The following applies: uptake of fluorescently labelled peptide cargo. On the procedure:
as §1
(§5) VEPEP-4 peptides have been used for the delivery of different peptides into different cell lines, including primary cell lines, stem cell lines and challenging cell lines. Peptide delivery was monitored using three approaches, fluorescence spectroscopy and monitoring biological responses (anti proliferation and anti viral responses).
(§6) 1—Fluorescently labelled peptide was visualized in the different cell lines using fluorescence microscopy or FACS sorting (Table 3). In most of the cell lines, the uptake of Cy-5 labelled peptides is more than 70% of the cells.

Assay [8] relates to HS-68. The assay is described as above. In kind it is cell-based, Human. The conditions noted are these: HS-68, uptake of fluorescently labelled peptide cargo. The method, then:
as §1, §5, §6

For assay [9], the system named is CEM-SS. The assay is described as above. In kind it is cell-based, Human. The following applies: uptake of fluorescently labelled peptide cargo. The method, then:
as §1, §5, §6

Assay [10] deals with Hela. The assay is described as above. In kind it is cell-based, Human. The conditions noted are these: uptake of fluorescently labelled peptide cargo. The method, then:
as §1, §5, §6

The subject of assay [11] is PBMC. The assay is described as above. In kind it is cell-based, Human. The following applies: uptake of fluorescently labelled peptide cargo. The method, then: as §1, §5, §6
For assay [12], the system named is MCF7. The assay is described as above. Format: cell-based, Human. The conditions noted are these: MCF7, uptake of fluorescently labelled peptide cargo. On the procedure: as §1, §5, §6
Assay [13] concerns U2OS. Described as above. Format: cell-based, Human. The conditions noted are these: uptake of fluorescently labelled peptide cargo. The method, then:
as §1, §5, §6

The subject of assay [14] is HIV-1LAI. In kind it is cell-based. The following applies: for IC50: 1LAI. On the procedure:
as §1
The anti-HIV activities of the peptides (PC4D, PC4S, PC6D, PC6S) and VEPEP-4/peptides complexes were assayed according to previously described method (Roisin et al, 2004). Phytohemagglutinin-P (PHA-P)-activated peripheral blood mononuclear cells (PBMC) treated by increasing concentrations of peptide (from 100 to 0.1 nM), one hour later, were infected with hundred 50% tissue culture infectious doses (TCID50) per 100,000 cells of the HIV-1-LAI or different resistant strains (Barre-Sinoussi et al, 1983). Viruses were amplified in vitro on PHA-P-activated PBMC. Viral stock was titrated using PHA-P-activated PBMC, and 50% TCID50 were calculated using Kärber's formula (Karber 1931). Samples were maintained throughout the culture, and cell supernatants were collected at day 7 post-infection and stored at −20 C. Viral replication was measured by quantifying RT activity in cell culture supernatants. In parallel, cytotoxicity of the compounds was evaluated in uninfected PHA-P-activated PBMC by colorimetric 3-(4-5 dimethylthiazol-2-yl)2,5 diphenyl tetrazolium bromite (MTT) assay on day 7 (Mossmann 1983). Experiments were performed in triplicate and repeated with another blood donor. […]

Where two headings read alike, the source gives them in different places. *1 amine or outer side, *2 acyl side, *3 side chain or, on linkers, in order; H or OH if unused. Where a SMILES comes first, the peptide text is derived from it. [ ]: non-standard residue; d: D form. Cysteamide = C(CS[*:3])N[*:1]; βAla = NCCC(=O)O

Take `COc1cccc2c1C(=O)c1c(O)c3c(c(O)c1C2=O)C[C@@](O)(C(=O)CO)C[C@@H]3O[C@H]1C[C@H](N)[C@H](O)[C@H](C)O1` [Doxo, doxorubicin, reference compound]: the IC50 (usually the concentration that gives 50% inhibition) in assay [1] (Homo sapiens, HeLa) was found to be 25000 nM; in [2] (HEK2, Free drug, read-out: IC50), 10000 nM. Moreover, in [2] (complexed versus free drug, cancer cells of Table 5), the “fold more efficient when complexed with VEPEP-4” value is given as 25 fold.
With `CC(=O)NCCC(=O)N[C@@H](Cc1c[nH]c2ccccc12)C(=O)N[C@@H](Cc1c[nH]c2ccccc12)C(=O)N[C@@H](CCCNC(=N)N)C(=O)N[C@@H](CC(C)C)C(=O)N[C@@H](CCCNC(=N)N)C(=O)N[C@@H](CO)C(=O)N[C@@H](Cc1c[nH]c2ccccc12)C(=O)N[C@@H](Cc1ccccc1)C(=O)N[C@@H](CCCNC(=N)N)C(=O)NCCS` [Short 3, X1WWRLRSWFR] (Ac-[βAla]WWRLRSWFR-Cysteamide), the Binding entry in assay [3] (cargo Doxorubicin), in [3] (cargo FAM-guanosine), in [3] (cargo porphyrin), in [4] and in assay [5] was “yes” throughout. Besides, the Kd (commonly a measure of binding affinity in units of concentration) in assay [3] (cargo Doxorubicin) is 100 nM; in assay [3] (cargo FAM-guanosine), 100 nM; in [3] (cargo porphyrin), 700 nM; in assay [4], 10 to 20 nM; in [5] it was 50 to 100 nM. The IC50 amounted to 1200 nM in assay [1], 900 nM in assay [6] and 1100 nM in [2].
Regarding `CC(=O)NCCC(=O)N[C@@H](Cc1c[nH]c2ccccc12)C(=O)N[C@@H](Cc1ccccc1)C(=O)N[C@@H](CCCNC(=N)N)C(=O)N[C@@H](CC(C)C)C(=O)N[C@@H](CO)C(=O)N[C@@H](CC(C)C)C(=O)N[C@@H](CCCNC(=N)N)C(=O)N[C@@H](Cc1ccccc1)C(=O)N[C@@H](Cc1c[nH]c2ccccc12)C(=O)NCCS` [Short 4, X1WFRLSLRFW] (Ac-[βAla]WFRLSLRFW-Cysteamide), the Binding result in assay [3] (cargo Doxorubicin), in [3] (cargo FAM-guanosine), in assay [3] (cargo porphyrin), in [4] and in assay [5] was “yes” each time. Further, the Kd in assay [3] (cargo Doxorubicin) was 10 nM; in assay [3] (cargo FAM-guanosine) it was 70 nM; in assay [3] (cargo porphyrin), 600 nM; in [4], 10 to 20 nM; in assay [5] it was 50 to 100 nM. The Efficiency in assay [7] was 67%; in assay [8], 87%; in assay [9], 74%; in [10], 58%; in assay [11], 65%; in [12], 78%. Further, in assay [13], the Efficiency is recorded as 65%. Also, the IC50 in assay [14] stood at 0.37 ± 0.1 nM; in [1] it was 600 nM; in [6], 500 nM; in assay [2] it was 500 nM.
As for `CC(=O)NCCC(=O)N[C@@H](Cc1c[nH]c2ccccc12)C(=O)N[C@@H](Cc1c[nH]c2ccccc12)C(=O)N[C@@H](CCCNC(=N)N)C(=O)N[C@@H](CC(C)C)C(=O)N[C@@H](CO)C(=O)N[C@@H](CC(C)C)C(=O)N[C@@H](CCCNC(=N)N)C(=O)N[C@@H](Cc1c[nH]c2ccccc12)C(=O)N[C@@H](Cc1c[nH]c2ccccc12)C(=O)NCCS` [VEPEP-3i, X1WWRLSLRWW] (Ac-[βAla]WWRLSLRWW-Cysteamide), the Binding result in assay [3] (cargo Doxorubicin), in assay [3] (cargo FAM-guanosine), in assay [3] (cargo porphyrin), in assay [4] and in [5] was “yes” each time. In addition, the Kd in assay [3] (cargo Doxorubicin) was 50 nM; in assay [3] (cargo FAM-guanosine) it was 60 nM; in assay [3] (cargo porphyrin) it was 400 nM; in assay [4] it was 10 to 20 nM; in [5], 50 to 100 nM. Moreover, the Efficiency in assay [7] is recorded as 84%; in [8], 80%; in [9], 70%; in assay [10] it was 65%; in assay [11], 80%; in [12], 50%. In [13], this compound gave an Efficiency of 78%. Also, the 50% inhibitory concentration (IC50) in assay [14] turned out to be 0.24 ± 0.1 nM; in assay [1], 1200 nM; in assay [6], 500 nM; in assay [2], 400 nM.
For “TWFTEWFT (Ac-TWFTEWFT-Cysteamide; SMILES CC(=O)N[C@H](C(=O)N[C@@H](Cc1c[nH]c2ccccc12)C(=O)N[C@@H](Cc1ccccc1)C(=O)N[C@H](C(=O)N[C@@H](CCC(=O)O)C(=O)N[C@@H](Cc1c[nH]c2ccccc12)C(=O)N[C@@H](Cc1ccccc1)C(=O)N[C@H](C(=O)NCCS)[C@@H](C)O)[C@@H](C)O)[C@@H](C)O) [PC4S, scrambled peptide, control of PC4D, reference compound]”, the anti viral activity result in assay [14] (scrambled peptide, PBMC infected by HIV-1LAI) was “do not show any anti viral activity”.

For the origin of these results see patent US9834581B2, “Cell penetrating peptides for intracellular delivery of molecules” (AADIGEN, LLC, priority 2012, dated 2017).
